{"source": "ChEMBL document CHEMBL4014279", "about": "“Synthesis of novel pyrazolo[3,4-b]quinolinyl acetamide analogs, their evaluation for antimicrobial and anticancer activities, validation by molecular modeling and CoMFA analysis” (Eur J Med Chem, 2017)", "key": {"Staphylococcus aureus [1]": {"test_system": "Staphylococcus aureus", "assay": "Antibacterial activity against Staphylococcus aureus MTCC 96 after 24 hrs by well diffusion method", "type": "functional", "conditions": "MTCC 96, 24 h"}, "Bacillus subtilis [2]": {"test_system": "Bacillus subtilis", "assay": "Antibacterial activity against Bacillus subtilis MTCC 121 after 24 hrs by well diffusion method", "type": "functional", "conditions": "MTCC 121, 24 h"}, "Staphylococcus aureus [3]": {"test_system": "Staphylococcus aureus", "assay": "Antibacterial activity against Staphylococcus aureus MLS16 MTCC 2940 after 24 hrs by well diffusion method", "type": "functional", "conditions": "MLS16 MTCC 2940, 24 h"}, "Micrococcus luteus [4]": {"test_system": "Micrococcus luteus", "assay": "Antibacterial activity against Micrococcus luteus MTCC 2470 after 24 hrs by well diffusion method", "type": "functional", "conditions": "MTCC 2470, 24 h"}, "Raoultella planticola [5]": {"test_system": "Raoultella planticola", "assay": "Antibacterial activity against Klebsiella planticola MTCC 530 after 24 hrs by well diffusion method", "type": "functional", "conditions": "MTCC 530, 24 h"}, "Escherichia coli [6]": {"test_system": "Escherichia coli", "assay": "Antibacterial activity against Escherichia coli MTCC 739 after 24 hrs by well diffusion method", "type": "functional", "conditions": "MTCC 739, 24 h"}, "Pseudomonas aeruginosa": {"test_system": "Pseudomonas aeruginosa", "assay": "Antibacterial activity against Pseudomonas aeruginosa MTCC 2453 after 24 hrs by well diffusion method", "type": "functional", "conditions": "MTCC 2453, 24 h"}, "Candida albicans [7]": {"test_system": "Candida albicans", "assay": "Antifungal activity against Candida albicans MTCC 183 after 24 hrs by well diffusion method", "type": "functional", "conditions": "MTCC 183, 24 h"}, "Candida albicans [8]": {"test_system": "Candida albicans", "assay": "Antifungal activity against Candida albicans MTCC 227 after 24 hrs by well diffusion method", "type": "functional", "conditions": "MTCC 227, 24 h"}, "Candida albicans [9]": {"test_system": "Candida albicans", "assay": "Antifungal activity against Candida albicans MTCC 854 after 24 hrs by well diffusion method", "type": "functional", "conditions": "MTCC 854, 24 h"}, "Candida albicans [10]": {"test_system": "Candida albicans", "assay": "Antifungal activity against Candida albicans MTCC 1637 after 24 hrs by well diffusion method", "type": "functional", "conditions": "MTCC 1637, 24 h"}, "Candida albicans [11]": {"test_system": "Candida albicans", "assay": "Antifungal activity against Candida albicans MTCC 3017 after 24 hrs by well diffusion method", "type": "functional", "conditions": "MTCC 3017, 24 h"}, "Candida albicans [12]": {"test_system": "Candida albicans", "assay": "Antifungal activity against Candida albicans MTCC 3018 after 24 hrs by well diffusion method", "type": "functional", "conditions": "MTCC 3018, 24 h"}, "Candida albicans [13]": {"test_system": "Candida albicans", "assay": "Antifungal activity against Candida albicans MTCC 3958 after 24 hrs by well diffusion method", "type": "functional", "conditions": "MTCC 3958, 24 h"}, "Candida albicans [14]": {"test_system": "Candida albicans", "assay": "Antifungal activity against Candida albicans MTCC 4748 after 24 hrs by well diffusion method", "type": "functional", "conditions": "MTCC 4748, 24 h"}, "Candida albicans [15]": {"test_system": "Candida albicans", "assay": "Antifungal activity against Candida albicans MTCC 7315 after 24 hrs by well diffusion method", "type": "functional", "conditions": "MTCC 7315, 24 h"}, "Candida parapsilosis": {"test_system": "Candida parapsilosis", "assay": "Antifungal activity against Candida parapsilosis MTCC 1744 after 24 hrs by well diffusion method", "type": "functional", "conditions": "MTCC 1744, 24 h"}, "[Candida] aaseri": {"test_system": "[Candida] aaseri", "assay": "Antifungal activity against Candida aaseri MTCC 1962 after 24 hrs by well diffusion method", "type": "functional", "conditions": "Yamadazyma aaseri, MTCC 1962, 24 h"}, "Nakaseomyces glabratus": {"test_system": "Nakaseomyces glabratus", "assay": "Antifungal activity against Candida glabrata MTCC 3019 after 24 hrs by well diffusion method", "type": "functional", "conditions": "MTCC 3019, 24 h"}, "Pichia kudriavzevii": {"test_system": "Pichia kudriavzevii", "assay": "Antifungal activity against Candida krusei MTCC 3020 after 24 hrs by well diffusion method", "type": "functional", "conditions": "MTCC 3020, 24 h"}, "Pichia sporocuriosa": {"test_system": "Pichia sporocuriosa", "assay": "Antifungal activity against Issatchenkia hanoiensis MTCC 4755 after 24 hrs by well diffusion method", "type": "functional", "conditions": "MTCC 4755, 24 h"}, "Staphylococcus aureus [16]": {"test_system": "Staphylococcus aureus", "assay": "Antibiofilm activity against Staphylococcus aureus MTCC 96 after 24 hrs by crystal violet staining based method", "type": "functional", "conditions": "MTCC 96, 24 h"}, "Bacillus subtilis [17]": {"test_system": "Bacillus subtilis", "assay": "Antibiofilm activity against Bacillus subtilis MTCC 121 after 24 hrs by crystal violet staining based method", "type": "functional", "conditions": "MTCC 121, 24 h"}, "Staphylococcus aureus [18]": {"test_system": "Staphylococcus aureus", "assay": "Antibiofilm activity against Staphylococcus aureus MLS16 MTCC 2940 after 24 hrs by crystal violet staining based method", "type": "functional", "conditions": "MLS16 MTCC 2940, 24 h"}, "Micrococcus luteus [19]": {"test_system": "Micrococcus luteus", "assay": "Antibiofilm activity against Micrococcus luteus MTCC 2470 after 24 hrs by crystal violet staining based method", "type": "functional", "conditions": "MTCC 2470, 24 h"}, "Escherichia coli [20]": {"test_system": "Escherichia coli", "assay": "Antibiofilm activity against Escherichia coli MTCC 739 after 24 hrs by crystal violet staining based method", "type": "functional", "conditions": "MTCC 739, 24 h"}, "Raoultella planticola [21]": {"test_system": "Raoultella planticola", "assay": "Antibiofilm activity against Klebsiella planticola MTCC 530 after 24 hrs by crystal violet staining based method", "type": "functional", "conditions": "MTCC 530, 24 h"}, "Candida albicans [22]": {"test_system": "Candida albicans", "assay": "Antibiofilm activity against Candida albicans MTCC 4748 after 24 hrs by crystal violet staining based method", "type": "functional", "conditions": "MTCC 4748, 24 h"}, "Staphylococcus aureus [23]": {"test_system": "Staphylococcus aureus", "assay": "Induction of intracellular ROS accumulation in Staphylococcus aureus MLS16 MTCC 2940 sessile biofilm cells assessed as fluorescence intensity at 1 ug/ml after 24 hrs by DCFH-DA staining-based fluorescence assay (reference value: 62 +/- 9.8 a.u.)", "type": "functional"}, "Staphylococcus aureus [24]": {"test_system": "Staphylococcus aureus", "assay": "Induction of intracellular ROS accumulation in Staphylococcus aureus MLS16 MTCC 2940 sessile biofilm cells assessed as fluorescence intensity at 2 ug/ml after 24 hrs by DCFH-DA staining-based fluorescence assay (reference value: 62 +/- 9.8 a.u.)", "type": "functional"}, "Staphylococcus aureus [25]": {"test_system": "Staphylococcus aureus", "assay": "Induction of intracellular ROS accumulation in Staphylococcus aureus MLS16 MTCC 2940 sessile biofilm cells assessed as fluorescence intensity at 3 ug/ml after 24 hrs by DCFH-DA staining-based fluorescence assay (reference value: 62 +/- 9.8 a.u.)", "type": "functional"}, "Staphylococcus aureus [26]": {"test_system": "Staphylococcus aureus", "assay": "Induction of intracellular ROS accumulation in Staphylococcus aureus MLS16 MTCC 2940 sessile biofilm cells assessed as fluorescence intensity at 4 ug/ml after 24 hrs by DCFH-DA staining-based fluorescence assay (reference value: 62 +/- 9.8 a.u.)", "type": "functional"}, "HeLa": {"test_system": "HeLa", "assay": "Cytotoxicity against human HeLa cells after 24 hrs by MTT assay", "type": "functional, cell-based"}, "HepG2": {"test_system": "HepG2", "assay": "Cytotoxicity against human HepG2 cells after 24 hrs by MTT assay", "type": "functional, cell-based", "conditions": "HepG2, 24 h"}, "A549": {"test_system": "A549", "assay": "Cytotoxicity against human A549 cells after 24 hrs by MTT assay", "type": "functional, cell-based", "conditions": "A549, 24 h"}, "COLO 205": {"test_system": "COLO 205", "assay": "Cytotoxicity against human COLO205 cells after 24 hrs by MTT assay", "type": "functional, cell-based", "conditions": "COLO 205, 24 h"}}}
{"smiles": "O=C(Cn1nc(C(F)(F)F)c2c(-c3ccccc3)c3ccccc3nc21)NCCN1CCNCC1", "values": [{"measurement": "MIC", "setting": "Staphylococcus aureus [1]", "value": 7.8, "unit": "µg/mL"}, {"measurement": "MIC", "setting": "Bacillus subtilis [2]", "value": 3.9, "unit": "µg/mL"}, {"measurement": "MIC", "setting": "Staphylococcus aureus [3]", "value": 3.9, "unit": "µg/mL"}, {"measurement": "MIC", "setting": "Micrococcus luteus [4]", "value": 3.9, "unit": "µg/mL"}, {"measurement": "MIC", "setting": "Raoultella planticola [5]", "value": 3.9, "unit": "µg/mL"}, {"measurement": "MIC", "setting": "Escherichia coli [6]", "value": 7.8, "unit": "µg/mL"}, {"measurement": "MIC", "setting": "Pseudomonas aeruginosa", "value": "> 125", "unit": "µg/mL"}, {"measurement": "MIC", "setting": "Candida albicans [7]", "value": 7.8, "unit": "µg/mL"}, {"measurement": "MIC", "setting": "Candida albicans [8]", "value": 15.6, "unit": "µg/mL"}, {"measurement": "MIC", "setting": "Candida albicans [9]", "value": 15.6, "unit": "µg/mL"}, {"measurement": "MIC", "setting": "Candida albicans [10]", "value": 7.8, "unit": "µg/mL"}, {"measurement": "MIC", "setting": "Candida albicans [11]", "value": 7.8, "unit": "µg/mL"}, {"measurement": "MIC", "setting": "Candida albicans [12]", "value": 15.6, "unit": "µg/mL"}, {"measurement": "MIC", "setting": "Candida albicans [13]", "value": 15.6, "unit": "µg/mL"}, {"measurement": "MIC", "setting": "Candida albicans [14]", "value": 7.8, "unit": "µg/mL"}, {"measurement": "MIC", "setting": "Candida albicans [15]", "value": 15.6, "unit": "µg/mL"}, {"measurement": "MIC", "setting": "Candida parapsilosis", "value": 7.8, "unit": "µg/mL"}, {"measurement": "MIC", "setting": "[Candida] aaseri", "value": 15.6, "unit": "µg/mL"}, {"measurement": "MIC", "setting": "Nakaseomyces glabratus", "value": 15.6, "unit": "µg/mL"}, {"measurement": "MIC", "setting": "Pichia kudriavzevii", "value": 15.6, "unit": "µg/mL"}, {"measurement": "MIC", "setting": "Pichia sporocuriosa", "value": 7.8, "unit": "µg/mL"}, {"measurement": "IC50", "setting": "Staphylococcus aureus [16]", "value": 4.1, "unit": "µM"}, {"measurement": "IC50", "setting": "Bacillus subtilis [17]", "value": 2.2, "unit": "µM"}, {"measurement": "IC50", "setting": "Staphylococcus aureus [18]", "value": 2.1, "unit": "µM"}, {"measurement": "IC50", "setting": "Micrococcus luteus [19]", "value": 2.5, "unit": "µM"}, {"measurement": "IC50", "setting": "Escherichia coli [20]", "value": 4.2, "unit": "µM"}, {"measurement": "IC50", "setting": "Raoultella planticola [21]", "value": 2.3, "unit": "µM"}, {"measurement": "IC50", "setting": "Candida albicans [22]", "value": 5.1, "unit": "µM"}, {"measurement": "Flu intensity", "setting": "Staphylococcus aureus [23]", "value": 492, "unit": "a.u."}, {"measurement": "Flu intensity", "setting": "Staphylococcus aureus [24]", "value": 792, "unit": "a.u."}, {"measurement": "Flu intensity", "setting": "Staphylococcus aureus [25]", "value": 101, "unit": "a.u."}, {"measurement": "Flu intensity", "setting": "Staphylococcus aureus [26]", "value": 1342, "unit": "a.u."}, {"measurement": "IC50", "setting": "HeLa", "value": 13.6, "unit": "µM"}, {"measurement": "IC50", "setting": "HepG2", "value": 11.2, "unit": "µM"}, {"measurement": "IC50", "setting": "A549", "value": 10.6, "unit": "µM"}, {"measurement": "IC50", "setting": "COLO 205", "value": 12.2, "unit": "µM"}]}
{"smiles": "O=C(O)c1cn(C2CC2)c2cc(N3CCNCC3)c(F)cc2c1=O", "note": "[CIPROFLOXACIN]", "values": [{"measurement": "MIC", "setting": "Staphylococcus aureus [1]", "value": 0.9, "unit": "µg/mL"}, {"measurement": "MIC", "setting": "Bacillus subtilis [2]", "value": 0.9, "unit": "µg/mL"}, {"measurement": "MIC", "setting": "Staphylococcus aureus [3]", "value": 0.9, "unit": "µg/mL"}, {"measurement": "MIC", "setting": "Micrococcus luteus [4]", "value": 0.9, "unit": "µg/mL"}, {"measurement": "MIC", "setting": "Raoultella planticola [5]", "value": 0.9, "unit": "µg/mL"}, {"measurement": "MIC", "setting": "Escherichia coli [6]", "value": 0.9, "unit": "µg/mL"}, {"measurement": "MIC", "setting": "Pseudomonas aeruginosa", "value": 0.9, "unit": "µg/mL"}, {"measurement": "IC50", "setting": "Bacillus subtilis [17]", "value": 0.6, "unit": "µM"}, {"measurement": "IC50", "setting": "Escherichia coli [20]", "value": 0.8, "unit": "µM"}, {"measurement": "Flu intensity", "setting": "Staphylococcus aureus [23]", "value": 601, "unit": "a.u."}, {"measurement": "Flu intensity", "setting": "Staphylococcus aureus [24]", "value": 925, "unit": "a.u."}, {"measurement": "Flu intensity", "setting": "Staphylococcus aureus [25]", "value": 1952, "unit": "a.u."}, {"measurement": "Flu intensity", "setting": "Staphylococcus aureus [26]", "value": 2010, "unit": "a.u."}]}
